Reference: patent US20210317099A1, “SAFER, POTENT, AND FAST ACTING ANTIMICROBIAL AGENTS” (Purdue Research Foundation, priority 2020, published 2021)
In brackets after ≈: the same amount, converted by molar mass. Where two headings read alike, the source gives them in different places.

Columns and labels:
[1] = test system: Staphylococcus aureus NRS384 (MRSA USA300); assay: Initial MIC screening, broth microdilution (CLSI); type: cell-based; details: for potency compared with control antibiotic: MRSA USA300, Table 1 assay; for MIC: Staphylococcus aureus NRS384 (MRSA USA300), broth microdilution, visual reading
Outline: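 MRSA USA300 grown 24 h at 37 °C on tryptic soy agar, then adjusted to 5×10^5 CFU/ml in cation-adjusted Mueller-Hinton broth. Compounds serially diluted 64 to 0.5 μg/mL per CLSI broth microdilution; MIC recorded.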

[2] = test system: Enterococcus faecalis ATCC 51299 (VRE); assay: MIC, Gram-positive panel; type: cell-based; details: Enterococcus faecalis ATCC 51299 (VRE); read-out: MIC
Outline: (§1)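 Strains are first grown aerobically overnight at 37° C on tryptone soya agar. A 0.5 McFarland suspension is then diluted in cation-adjusted Mueller-Hinton broth, compounds are serially diluted across the plate with this inoculum, and plates stand aerobically at 37° C for 18-20 h.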

[3] = test system: MRSA NRS 119; assay: MIC, Gram-positive panel; type: cell-based; details: Staphylococcus aureus; MRSA NRS 119; read-out: MIC
Outline: (§2)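 Overnight TSA cultures (37° C) → 0.5 McFarland suspension → dilution in CAMHB; test compounds serially diluted in inoculated broth; aerobic incubation at 37° C, 18-20 h.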

[4] = test system: MRSA NRS 123; assay: MIC, Gram-positive panel; type: cell-based; details: Staphylococcus aureus; MRSA NRS 123; read-out: MIC
Outline: as §2

[5] = test system: MRSA NRS 385; assay: MIC, Gram-positive panel; type: cell-based; details: Staphylococcus aureus; MRSA NRS 385; read-out: MIC
Outline: as §2

[6] = test system: MRSA NRS 386; assay: MIC, Gram-positive panel; type: cell-based; details: Staphylococcus aureus; MRSA NRS 386; read-out: MIC
Outline: as §2

[7] = test system: Methicillin-resistant S. epidermidis NRS101; assay: MIC, Gram-positive panel; type: cell-based; details: Staphylococcus epidermidis; Methicillin-resistant S. epidermidis NRS101; read-out: MIC
Outline: as §2

[8] = test system: Methicillin-resistant S. pneumoniae ATCC 700677; assay: MIC, Gram-positive panel; type: cell-based; details: Streptococcus pneumoniae, ATCC700677; Methicillin-resistant S. pneumoniae ATCC 700677; read-out: MIC
Outline: as §1

[9] = test system: S. aureus ATCC 6538; assay: MIC, Gram-positive panel; type: cell-based; details: Staphylococcus aureus, ATCC6538; S. aureus ATCC 6538; read-out: MIC
Outline: as §2

[10] = test system: S. aureus NRS 107; assay: MIC, Gram-positive panel; type: cell-based; details: Staphylococcus aureus, NRS107; S. aureus NRS 107; read-out: MIC
Outline: as §2

[11] = test system: VRSA 10; assay: MIC, Gram-positive panel; type: cell-based; details: Staphylococcus aureus; VRSA 10; read-out: MIC
Outline: as §2

[12] = test system: VRSA 12; assay: MIC, Gram-positive panel; type: cell-based; details: Staphylococcus aureus; VRSA 12; read-out: MIC
Outline: as §2

[13] = test system: MRSA USA 400; assay: Time-kill assay; type: cell-based, Staphylococcus aureus; details: 5×MIC; for time required for complete eradication of the bacterial count: MRSA USA 400, 24-hour incubation
Procedure: In order to the mode of killing of methylene lactone compounds, a time kill assay was performed against MRSA USA 400 as described previously. MRSA USA400 cells in logarithmic growth phase (OD600˜1.00) were diluted to 6.03×10^6 colony-forming units (CFU/mL) and exposed to concentrations equivalent to 5×MIC (in triplicate) of 148, 149, 151, 155, 158 and vancomycin in Tryptic soy broth. Aliquots (100 μL) were collected from each treatment after 0, 2, 4, 6, 8, 12, and 24 hours of incubation at 37° C. and subsequently serially diluted in PBS. Bacteria were then transferred to Tryptic soy agar plates and incubated at 37° C. for 18-20 hours before viable CFU/mL was determined (FIG. 1).
DMSO (solvent for the compounds) served as a negative control and vancomycin served as a control drug. The error bars represent standard deviation values obtained from triplicate samples used for each compound/antibiotic studied.

[14] = test system: total proteases production in MRSA USA300; assay: Inhibition of staphylococcal total proteases production, skimmed milk method; type: cell-based, Staphylococcus aureus; details: MRSA USA300, 0.25×MIC, untreated = 100%
Procedure: The modified skimmed milk method was utilized to investigate the protease inhibitory activities of BHS compounds as described previously. In brief, overnight culture of MRSA300 in TSB, with and without subinhibitory concentrations of compounds (in triplicate), was centrifuged at 14000×g for 10 minutes. Then, a total volume of 500 μL of culture supernatant was incubated with 1 mL skimmed milk (1.25%) at 37° C. for 1 hour. Afterwards, the OD600 was measured to indicate the degree of clearance of skimmed milk. Higher OD values indicate lower proteolytic activity and greater protease inhibitory activity.
FIG. 4. Influence of BHS compounds on the staphylococcal total protease production. OD600 was measured following overnight culturing of MRSA USA300 in TSB in presence and absence of 0.25×MIC of 148, 149, 155, 158 and vancomycin followed by incubation of supernatants with skim milk for 1 hour at 37° C. The Data are presented as percent production (means±standard deviation). DMSO (the solvent for the compounds that served as a negative control). Vancomycin served as the control antibiotic. The values represent an average (means±standard deviation) of four samples analyzed for each compound/antibiotic. Error bars represent standard deviation values. An asterisk (*) denotes statistical significance (P<0.05) between results for compounds 148, 149, 155, 158 and vancomycin analyzed via unpaired t test ([…]).

[15] = Staphylococcus aureus, read-out: MIC

Row | Compound | potency compared with control antibiotic [1] | MIC [1] [µg/mL] | MIC [1, 15] [µg/mL] | MIC [2] [µg/mL] | MIC [3] [µg/mL] | MIC [4] [µg/mL] | MIC [5] [µg/mL] | MIC [6] [µg/mL] | MIC [7] [µg/mL] | MIC [8] [µg/mL] | MIC [9] [µg/mL] | MIC [10] [µg/mL] | MIC [11] [µg/mL] | MIC [12] [µg/mL] | time required for complete eradication of the bacterial count [13] [h] | total protease production [14] [%] | reduction in the bacterial count after 6 hours ([13]; MRSA USA 400, after 6 hours) [log10] | reduction in the bacterial count after 6 hours (percent) ([13]; MRSA USA 400, after 6 hours) [%]
1 | C=C1C(=O)O[C@H](c2ccc3ccccc3c2)[C@@H]1c1ccc2ccccc2c1 [Compound 158] | potency comparable to vancomycin | 2 (≈ 5.71 µM) | 1 to 2 (≈ 2.85 to 5.71 µM) | > 64 | 1 (≈ 2.85 µM) | 1 (≈ 2.85 µM) | 1 (≈ 2.85 µM) | 1 (≈ 2.85 µM) | 0.5 (≈ 1.43 µM) | 2 (≈ 5.71 µM) | 1 (≈ 2.85 µM) | 1 (≈ 2.85 µM) | 1 (≈ 2.85 µM) | 2 (≈ 5.71 µM) | 2 | 56 |  | 
2 | C=C1C(=O)O[C@H](c2ccccc2)[C@@H]1c1cccc2ccccc12 [Compound 151] | potency similar to the oxazolidinone class of antimicrobial drug linezolid | 1 (≈ 3.33 µM) | 1 to 2 (≈ 3.33 to 6.66 µM) | > 64 | 2 (≈ 6.66 µM) | 2 (≈ 6.66 µM) | 1 (≈ 3.33 µM) | 1 (≈ 3.33 µM) | 8 (≈ 26.6 µM) | 4 (≈ 13.3 µM) | 2 (≈ 6.66 µM) | 2 (≈ 6.66 µM) | 2 (≈ 6.66 µM) | 2 (≈ 6.66 µM) | 2 |  |  | 
3 | C=C(C(=O)OC)C(c1ccc2ccccc2c1)C(O)c1cccc2ccccc12 (centres unmarked) [Compound 148] | potency comparable to vancomycin | 2 (≈ 5.23 µM) | 1 to 2 (≈ 2.61 to 5.23 µM) | > 64 | 1 (≈ 2.61 µM) | 1 (≈ 2.61 µM) | 1 (≈ 2.61 µM) | 1 (≈ 2.61 µM) | 1 (≈ 2.61 µM) | 1 (≈ 2.61 µM) | 1 (≈ 2.61 µM) | 1 (≈ 2.61 µM) | 2 (≈ 5.23 µM) | 2 (≈ 5.23 µM) | 12 | 87 | 3 | 99.9
4 | C=C1C(=O)O[C@H](c2cccc3ccccc23)[C@@H]1c1ccc2ccccc2c1 [Compound 155] | potency comparable to vancomycin | 2 (≈ 5.71 µM) | 1 to 2 (≈ 2.85 to 5.71 µM) | > 64 | 1 (≈ 2.85 µM) | 1 (≈ 2.85 µM) | 1 (≈ 2.85 µM) | 1 (≈ 2.85 µM) | 1 (≈ 2.85 µM) | 1 (≈ 2.85 µM) | 1 (≈ 2.85 µM) | 1 (≈ 2.85 µM) | 1 (≈ 2.85 µM) | 2 (≈ 5.71 µM) | 2 | 65 |  | 
